3 compounds from patent US7745442B2, “Methods of reducing risk of infection from pathogens” (priority 2003, dated 2010) can be followed below.

The target of the test is T1, airway epithelial sodium currents (sodium channel) in canine bronchial epithelia (Canis lupus familiaris, UniProt A0A8I3MKE6+A0A8I3Q679+Q95165).
T1 construct: endogenous in cells; host or cells: primary canine bronchial epithelial cells from freshly excised airways, cultured at air-liquid interface on Snapwell inserts
The test is described as follows: In vitro sodium channel blocking activity (short circuit current, Ussing chambers) in canine bronchial epithelia. The settings on record: potency in canine bronchial epithelia; for Fold Amiloride*: relative to amiloride (Formula III compounds), value ± spread. The class given is cell-based. How it is done: One assay used to assess mechanism of action and/or potency of the compounds of (1), (II), and (HI) involves the determination of lumenal drug inhibition of airway epithelial sodium currents measured under short circuit current (ISC) using airway epithelial monolayers mounted in Ussing chambers. Cells obtained from freshly excised human, dog, sheep or rodent airways are seeded onto porous 0.4 micron Snapwell™ Inserts (CoStar), cultured at air-liquid interface (ALI) conditions in hormonally defined media, and assayed for sodium transport activity (ISC) while bathed in Krebs Bicarbonate Ringer (KBR) in Using chambers. All test drug additions are to the lumenal bath with half-log dose addition protocols (from 1×10^−11 M to 3×10^−5 M), and the cumulative change in ISC (inhibition) recorded. All drugs are prepared in dimethyl sulfoxide as stock solutions at a concentration of 1×10^−2 M and stored at −20° C. Eight preparations are typically run in parallel; two preparations per run incorporate amiloride and/or benzamil as positive controls. After the maximal concentration (5×10^−5 M) is administered, the lumenal bath is exchanged three times with fresh drug-free KBR solution, and the resultant ISC measured after each wash for approximately 5 minutes in duration. Reversibility is defined as the percent return to the baseline value for sodium current after the third wash. All data from the voltage clamps are collected via a computer interface and analyzed off-line.
Dose-effect relationships for all compounds are considered and analyzed by the Prism 3.0 program. IC50 values, maximal effective concentrations, and reversibility are calculated and compared to amiloride and benzamil as positive controls.
Amiloride and/or a compound 33 was also tested in this assay as a positive control. The results for the compounds of the present invention are reported as fold-enhancement values relative to amiloride.
Amiloride was also tested in this assay as a positive control. The results for the compounds of the present invention are reported as fold-enhancement values relative to amiloride.

T1 sequence (A0A8I3Q679 entry or part of it): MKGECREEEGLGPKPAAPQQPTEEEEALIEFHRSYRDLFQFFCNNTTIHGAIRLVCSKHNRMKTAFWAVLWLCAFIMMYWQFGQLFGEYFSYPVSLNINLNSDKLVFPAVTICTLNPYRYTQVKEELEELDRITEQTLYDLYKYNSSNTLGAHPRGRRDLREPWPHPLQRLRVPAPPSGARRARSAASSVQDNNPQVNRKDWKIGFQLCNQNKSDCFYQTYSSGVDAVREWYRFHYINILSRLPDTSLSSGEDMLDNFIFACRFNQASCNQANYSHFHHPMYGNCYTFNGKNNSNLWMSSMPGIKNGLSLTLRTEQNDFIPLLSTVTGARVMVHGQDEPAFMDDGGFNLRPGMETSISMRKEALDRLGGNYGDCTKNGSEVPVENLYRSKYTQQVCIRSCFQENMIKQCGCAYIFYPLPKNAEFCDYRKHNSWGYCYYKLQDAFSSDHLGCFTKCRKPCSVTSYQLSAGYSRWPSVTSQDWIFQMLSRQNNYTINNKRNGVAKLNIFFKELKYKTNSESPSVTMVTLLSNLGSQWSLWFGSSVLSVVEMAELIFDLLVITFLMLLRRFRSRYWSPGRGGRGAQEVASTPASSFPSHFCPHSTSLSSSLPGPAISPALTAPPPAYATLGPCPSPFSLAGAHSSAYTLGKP
T1 sequence (A0A8I3MKE6 entry or part of it): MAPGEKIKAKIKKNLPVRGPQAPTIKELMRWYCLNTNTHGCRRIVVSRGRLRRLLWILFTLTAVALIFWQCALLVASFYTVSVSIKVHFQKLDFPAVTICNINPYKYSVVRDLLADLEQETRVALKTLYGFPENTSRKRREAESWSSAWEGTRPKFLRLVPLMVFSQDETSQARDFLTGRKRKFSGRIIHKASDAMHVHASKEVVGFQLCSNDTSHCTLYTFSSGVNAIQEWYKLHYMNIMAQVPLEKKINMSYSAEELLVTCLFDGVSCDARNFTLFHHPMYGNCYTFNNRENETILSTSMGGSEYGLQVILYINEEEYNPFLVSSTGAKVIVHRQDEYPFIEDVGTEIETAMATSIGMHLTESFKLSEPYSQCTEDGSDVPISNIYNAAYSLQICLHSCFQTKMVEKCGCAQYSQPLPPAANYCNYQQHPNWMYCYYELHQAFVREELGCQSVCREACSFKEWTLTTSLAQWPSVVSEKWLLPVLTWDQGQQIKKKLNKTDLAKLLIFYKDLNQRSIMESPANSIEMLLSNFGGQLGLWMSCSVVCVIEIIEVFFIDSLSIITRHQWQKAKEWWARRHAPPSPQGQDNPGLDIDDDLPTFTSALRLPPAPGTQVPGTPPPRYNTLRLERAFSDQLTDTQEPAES
T1 sequence (Q95165 whole entry): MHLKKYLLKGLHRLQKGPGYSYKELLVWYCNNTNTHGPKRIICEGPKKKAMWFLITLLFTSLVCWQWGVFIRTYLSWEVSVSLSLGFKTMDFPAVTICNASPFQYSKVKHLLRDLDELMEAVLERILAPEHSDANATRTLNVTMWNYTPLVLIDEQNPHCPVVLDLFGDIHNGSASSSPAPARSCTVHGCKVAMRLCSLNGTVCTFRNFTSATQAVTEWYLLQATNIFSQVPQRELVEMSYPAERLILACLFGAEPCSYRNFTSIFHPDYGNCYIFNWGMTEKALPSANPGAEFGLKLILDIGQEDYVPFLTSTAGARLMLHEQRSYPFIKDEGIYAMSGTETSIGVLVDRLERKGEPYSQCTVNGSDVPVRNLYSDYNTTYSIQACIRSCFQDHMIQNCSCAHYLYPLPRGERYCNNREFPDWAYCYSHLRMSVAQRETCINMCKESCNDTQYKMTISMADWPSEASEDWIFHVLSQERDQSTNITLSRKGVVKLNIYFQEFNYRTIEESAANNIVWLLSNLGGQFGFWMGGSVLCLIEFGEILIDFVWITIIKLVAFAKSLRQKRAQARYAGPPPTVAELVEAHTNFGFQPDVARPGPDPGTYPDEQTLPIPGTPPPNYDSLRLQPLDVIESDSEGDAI

Take `Cl.N=C(NCCCCc1ccc(OCC(O)CO)cc1)NC(=O)c1nc(Cl)c(N)nc1N` (centres unmarked) [compound 33, 4-[4-(2,3-Dihydroxypropyloxyl)phenyl]butylamidino-3,5-diamino-6-chloropyrazinecarboxamide hydrochloride]: the “Fold Amiloride*” value (number in brackets not explained (presumably n), listed as drawing 52: O CH2 CHOH CH2 OH, hydrochloride) was 51.95 (50) fold; the “Fold Amiloride*” value (number in brackets not explained (presumably n), listed as drawing 53: O CH2 CHOH CH2 OH, hydrochloride) is on record as 51.95 (79) fold; the “Fold Amiloride*” value (number in brackets not explained, Position=Para, hydrochloride) is reported as 51.55 (79) fold.

On to `Cl.Cl.N=C(N)NCCOc1ccc(CCCCNC(=N)NC(=O)c2nc(Cl)c(N)nc2N)cc1` [compound 9518, N-(3,5-diamino-6-chloropyrazine-2-carbonyl)-N′-{4-[4-(2-guanidinoethoxy)-phenyl]butyl}guanidine dihydrochloride], for which, where the note is “number in brackets not explained”, the “Fold Amiloride*” value is 120.6 ± 60.8 (11) fold.

Consider `Cl.N=C(NCCCCc1ccc(O)cc1)NC(=O)c1nc(Cl)c(N)nc1N` [compound V, 4-(4-hydroxyphenyl)butylamidino-3,5-diamino-6-chloropyrazinecarboxamide hydrochloride], for which the “Fold Enhancement Over Amiloride” value (relative to amiloride (Formula I compounds, Tables 1-4)) stood at 50.3 fold.
